Measurements taken from patent US20190060249A1 (priority 2017, published 2019).

Assays:
[1] = molecular target: T1, ALDH3A1 (Homo sapiens, UniProt P30838); experiment: ALDH fluorescence-coupled enzymatic assay, all-trans-retinal substrate, ALDH3A1; type: biochemical
T1 sequence (P30838 1-453): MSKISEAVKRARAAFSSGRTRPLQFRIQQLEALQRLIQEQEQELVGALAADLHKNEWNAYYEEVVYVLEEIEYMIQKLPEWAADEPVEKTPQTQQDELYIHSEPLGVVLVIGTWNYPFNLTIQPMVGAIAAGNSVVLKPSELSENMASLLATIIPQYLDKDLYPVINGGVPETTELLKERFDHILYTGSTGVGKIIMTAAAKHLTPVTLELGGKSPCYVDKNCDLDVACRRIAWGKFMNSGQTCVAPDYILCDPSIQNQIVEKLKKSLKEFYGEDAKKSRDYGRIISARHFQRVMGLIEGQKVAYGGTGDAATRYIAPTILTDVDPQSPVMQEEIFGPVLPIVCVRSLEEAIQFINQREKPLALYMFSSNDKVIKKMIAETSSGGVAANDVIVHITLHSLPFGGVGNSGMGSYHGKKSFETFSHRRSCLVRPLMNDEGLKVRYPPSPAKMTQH
Method: (§1) Assay conditions were modified from the original enzyme assay protocol above using 50 mM NaPPi buffer (pH 7.4), 2.5 mM NAD^+, 10 mM acetaldehyde or all-trans-retinal substrate with the addition of 1 U/mL diaphorase and 0.1 mM resazurin for the secondary reaction. Measurements were collected in triplicate at 25° C.

[2] = test system: intact SMG from CD-1 E13.5 embryos; experiment: DarkZone dye aldehyde assay in intact E13.5 embryonic SMG; type: cell-based, mouse; settings: 25 μM Alda-341 for 24 h, 4 Gy, 3 h after radiation
Method: DarkZone dye aldehyde assay in intact E13.5 embryonic SMG: E13.5 embryonic whole SMG were manually dissected and cultured in DMEM/F12 with 50 ug/mL transferrin and 50 ug/mL Vitamin C for 24 h. Glands were irradiated with 4 or 8 Gy and incubated with 20 uM DarkZone fluorescein aldehyde dye and 10 mM 2,4-Dimethoxyaniline catalyst (TCI America) for 1 h (Yuen, L. H., Saxena, N. S., Park, H. S., Weinberg, K., and Kool, E. T. (2016) Dark Hydrazone Fluorescence Labeling Agents Enable Imaging of Cellular Aldehydic Load. ACS chemical biology 11, 2312-2319). Glands were imaged 3 h after radiation using a Keyence BZ-X710 microscope GFP filter at 10× magnification. Average fluorescence intensity was quantified using Image J (NIH).
After 24 h, the glands were irradiated with 4 Gy and incubated SMG with DarkZone dye to measure intracellular aldehydes. After 3 h, the aldehydic load in the irradiated vehicle control-treated SMG was more than 4-fold greater than the non-irradiated vehicle control-treated SMG.

[3] = molecular target: T2, ALDH7A1 (Homo sapiens, UniProt P49419); experiment: ALDH enzymatic assay, recombinant ALDH7A1; type: biochemical; settings: 5 μg/ml recombinant enzyme, 10 mM acetaldehyde, 20 μM Alda-341
T2 sequence (P49419 27-539): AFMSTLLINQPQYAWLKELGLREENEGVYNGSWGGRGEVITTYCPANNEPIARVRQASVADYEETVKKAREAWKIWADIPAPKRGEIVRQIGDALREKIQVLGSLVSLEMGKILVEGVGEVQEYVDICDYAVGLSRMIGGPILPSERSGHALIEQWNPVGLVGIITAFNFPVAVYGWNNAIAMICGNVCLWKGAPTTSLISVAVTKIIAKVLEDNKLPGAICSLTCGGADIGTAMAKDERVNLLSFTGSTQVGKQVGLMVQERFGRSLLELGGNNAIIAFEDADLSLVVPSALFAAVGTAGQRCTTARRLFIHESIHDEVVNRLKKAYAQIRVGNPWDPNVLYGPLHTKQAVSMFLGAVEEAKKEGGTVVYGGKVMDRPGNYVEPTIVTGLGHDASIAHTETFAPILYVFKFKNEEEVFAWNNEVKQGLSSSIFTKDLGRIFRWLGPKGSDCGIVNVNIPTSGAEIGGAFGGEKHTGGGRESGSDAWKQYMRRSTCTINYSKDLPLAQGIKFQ
Method: (§2) ALDH enzymatic assay: ALDH1A1, ALDH1A2, 2, 3A1, 3A2, 4A1, 5A1, 7A1 were measured as previously described using 5 μg/ml of recombinant protein (Chen, C. H., Cruz, L. A., and Mochly-Rosen, D. (2015) Pharmacological recruitment of aldehyde dehydrogenase 3A1 (ALDH3A1) to assist ALDH2 in acetaldehyde and ethanol metabolism in vivo. Proceedings of the National Academy of Sciences of the United States of America 112, 3074-3079). […] Assays were conducted in 50 mM NaPPi buffer (pH 7.4) in the presence of 2.5 mM NAD^+ and 10 mM substrate and measured in triplicate at 25° C. Dose response curve fits and EC50's were calculated using GraphPad Prism 7 software.

[4] = molecular target: T3, ALDH1A1 (Homo sapiens, UniProt P00352); experiment: ALDH fluorescence-coupled enzymatic assay, all-trans-retinal substrate, ALDH1A1; type: biochemical
T3 sequence (P00352 1-501): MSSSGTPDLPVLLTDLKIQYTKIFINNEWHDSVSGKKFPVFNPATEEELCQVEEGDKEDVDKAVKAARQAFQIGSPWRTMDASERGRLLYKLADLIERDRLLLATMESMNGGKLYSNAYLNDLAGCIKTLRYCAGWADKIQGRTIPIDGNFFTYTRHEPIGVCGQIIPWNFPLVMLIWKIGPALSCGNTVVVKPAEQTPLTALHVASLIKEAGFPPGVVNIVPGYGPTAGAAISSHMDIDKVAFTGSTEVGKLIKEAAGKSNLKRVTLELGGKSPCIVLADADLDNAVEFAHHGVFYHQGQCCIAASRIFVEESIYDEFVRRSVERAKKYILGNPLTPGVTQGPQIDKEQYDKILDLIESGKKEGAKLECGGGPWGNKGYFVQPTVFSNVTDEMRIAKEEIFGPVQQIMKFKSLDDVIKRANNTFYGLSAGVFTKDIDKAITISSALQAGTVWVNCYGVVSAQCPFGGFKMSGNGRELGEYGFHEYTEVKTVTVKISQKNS
Method: as §1

[5] = molecular target: T1, ALDH3A1; experiment: ALDH enzymatic assay (spectrophotometric), recombinant ALDH3A1; type: biochemical
Description: To determine if ALDH3A1 activation is sufficient to protect salivary glands from radiation-induced dysfunction, a library of 135 traditional Chinese medicine extracts donated from Sun Ten Pharmaceutical Co., Taiwan, was screened using a spectroscopic enzyme activity assay and purified recombinant ALDH3A1. […] We then conducted high performance liquid chromatography (HPLC) fractionation of the extracts and nuclear magnetic resonance (NMR) characterization of the fractions. Based on the NMR fingerprint, we identified known constituents of similar fingerprints and purchased the commercially available compounds to test using the enzyme activity assay.
as §2
Activity measured in presence of compound concentrations from 6 nM to 400 μM.

C=C(C)[C@H]1CC=C(C)CC1 [Alda-341, D-limonene]
catalytic activity of all trans-retinal in ALDH3A1 [1]: did not increase | aldehydic load after radiation [2]: reduced the aldehydic load to almost non-irradiated levels | catalytic activity of ALDH7A1 [3]: did not increase | catalytic activity of all trans-retinal in ALDH1A1 [4]: did not increase | substrate specificity of increase in ALDH3A1 catalytic activity ([5]; 10 mM acetaldehyde, propionaldehyde, benzaldehyde, cinnamaldehyde, decanal, heptaldehyde or 200 μM 4-hydroxynonenal, 100 μM compound): only increase the catalytic activity of ALDH3A1 towards small aldehydes like acetaldehyde and propionaldehyde but not aromatic or long-chain aldehydes | Amax ([5]; normalized to baseline activity, GraphPad Prism curve fit): ~4.6 | EC50 ([5]; recombinant ALDH3A1, spectrophotometric enzyme activity assay, concentrations 6 nM to 400 μM): ~14 µM
